Patent US10787444B2, “Compounds for the modulation of myc activity” (Syros Pharmaceuticals, Inc., priority 2015, dated 2020)
Read-outs that look alike come from different tables or passages of the source.

Assays:
[1] = tested on: human small lung cancer cell line H2171; assay: Cell Viability Assay (ATPlite); assay type: cell-based; conditions: H2171 cells, three days, ATPlite, calculated IC50 class, read-out: H2171 Activity
Protocol: Compounds of the invention were assayed for cell viability using the human small lung cancer cell line H2171 as described in the following protocol. Cells were counted and adjusted to 20,000 cells/mL. Using a Biotek EL406, 50 μL of cells in media were distributed into 384 well white plates from Thermo. Immediately after plating, compound in DMSO was distributed to plates. Compounds were added to plates using a 50 nL 384 well pin transfer manifold on a Janus workstation. Stocks were arrayed in 10 point dose response in DMSO stock in 384 well Greiner compound plates. After the addition of compounds, plates were incubated for three days in a 37° C. incubator. Cell viability was read out using ATPlite from Perkin Elmer. Lyophilized powder was resuspended in lysis buffer and diluted 1:2 with deionized water. 25 μL of this solution was added to each well using the Biotek liquid handler. Plates were incubated for 15 minutes at room temperature before signal was read on an Envision Plate Reader. The data from this assay are summarized in Tables 2 and 3 below (H2171 activity).

c-Myc/Max/Ebox DNA = target: T1, c-Myc/Max/Ebox DNA (Homo sapiens, UniProt P01106); assay: c-Myc/Max/Ebox DNA AlphaScreen Assay; assay type: binding; conditions: calculated IC50 class
T1 construct: his6 (cleaved yes)
Protocol: Compounds of the invention were assayed for c-Myc/Max/EBox activity as described in the following protocol. Human his6-c-Myc and his6-Max were used with biotinylated DNA containing a single Ebox sequence (biotin[…]) purchased from MWG Operon. Free c-Myc was generated from his6-c-Myc through thrombin cleavage of the his6 tag. For 384-well plate assays, 10 μL of a 2× solution of free c-Myc (20 nM final), Ni^2+ coated Acceptor Beads (25 μg/ml final), and biotinylated Ebox oligo (10 nM final) were added to 384-well plates with a Biotek EL406 liquid handler. 50 nL of compounds from stock plates were added by pin transfer using a Janus Workstation (PerkinElmer), allowing the compounds to interact with c-Myc prior to c-Myc binding with Max. In the current assay, DMSO was not allowed to exceed 2% v/v of the assay. 10 μl of 2× master mix containing streptavidin-coated donor beads (25 μg/ml final) and his6-Max (5 nM) were added. AlphaScreen measurements were performed on an Envision plate reader (PerkinElmer) utilizing the manufacturer's protocol.
Both master mixes were made in room temperature assay buffer (50 mM HEPES, 150 mM NaCl, 0.2% w/v BSA, 0.02% w/v Tween20, 40 μg/ml glycogen, 500 μM DTT, pH 8.0, wherein both DTT and glycogen were added fresh). Alpha beads were added to respective master solutions. All subsequent steps were performed in low light conditions. Solution 1:2× solution of components with final concentrations of c-Myc Ni-coated Acceptor Beads (25 μg/ml), and biotinylated Ebox oligo (10 nM). Solution 2:2× solution of streptavidin-coated donor beads (25 μg/ml final) and his6-Max 10 μL. […] 50 nL of compounds from stock plates were added by pin transfer using a Janus Workstation. Solution 2 (10 μl) was added with the liquid handler. Plates were sealed with foil to block light exposure and prevent evaporation. Plates were very briefly centrifuged followed by 2 hour incubation. […] Excitation was at 680 nm for donor bead release of singlet oxygen and emission was read with a bandpass filter from 520-620 nm.

[2] = Homo sapiens, NCI-H2171, 72 h, Table 2, compounds of FIG. 1
[3] = Homo sapiens, NCI-H2171, 72 h, Table 3, compounds of FIG. 2

T1 sequence (P01106 whole entry): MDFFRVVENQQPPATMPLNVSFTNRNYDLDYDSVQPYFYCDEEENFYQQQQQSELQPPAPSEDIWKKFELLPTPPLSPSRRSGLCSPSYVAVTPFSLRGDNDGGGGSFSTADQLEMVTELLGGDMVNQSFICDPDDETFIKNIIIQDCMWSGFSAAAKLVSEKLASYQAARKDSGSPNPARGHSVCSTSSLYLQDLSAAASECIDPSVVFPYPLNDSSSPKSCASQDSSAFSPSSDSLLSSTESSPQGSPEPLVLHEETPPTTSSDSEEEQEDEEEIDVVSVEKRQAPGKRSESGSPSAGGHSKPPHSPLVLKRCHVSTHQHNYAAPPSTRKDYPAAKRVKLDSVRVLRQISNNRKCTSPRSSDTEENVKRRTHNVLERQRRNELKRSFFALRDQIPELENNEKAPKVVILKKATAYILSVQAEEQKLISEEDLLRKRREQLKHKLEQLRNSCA

Row | Structure (SMILES) | IC50 ([1]; Table 2, compounds of FIG. 1) [nM] | IC50 (c-Myc/Max/Ebox DNA; Table 2, compounds of FIG. 1) [nM] | IC50 [1, 2] [nM] | further results
1 | COCCNCCC(=O)Nc1sc2c(c1-c1nc3ccc(-c4cccnc4)cc3s1)CC(C)NC2C (single isomer, unassigned) [Compound 520, N-(5,7-Dimethyl-3-(6-(pyridin-3-yl)benzo[d]thiazol-2-yl)-4,5,6,7-tetrahydrothieno[2,3-c]pyridin-2-yl)-3-((2-methoxyethyl)amino)propanamide] | 300 to 1000 | 1000 to 10000 | – | –
2 | CCCNCCC(=O)Nc1sc2c(c1-c1nc3ccccc3s1)CCN(C(C)C)C2 [Compound 539, N-(3-(Benzo[d]thiazol-2-yl)-6-isopropyl-4,5,6,7-tetrahydrothieno[2,3-c]pyridin-2-yl)-3-(propylamino)propanamide] | 300 to 1000 | 300 to 1000 | – | –
3 | CC(=O)Nc1sc2c(c1-c1nc3ccccc3s1)CCC(N(C)C)C2 (stereo not shown) [Compound 223, N-(3-(benzo[d]thiazol-2-yl)-6-(dimethylamino)-4,5,6,7-tetrahydrobenzo[b]thiophen-2-yl)acetamide] | – | – | – | IC50 [1, 3]: > 10000 nM; IC50 (c-Myc/Max/Ebox DNA; Table 3, compounds of FIG. 2): 1000 to 10000 nM
4 | CC(=O)N(C)c1sc2c(c1-c1nc3ccccc3s1)CCNC2 [Compound 232, N-(3-(benzo[d]thiazol-2-yl)-4,5,6,7-tetrahydrothieno[2,3-c]pyridin-2-yl)-N-methylacetamide] | – | – | – | IC50 [1, 3]: > 10000 nM; IC50 (c-Myc/Max/Ebox DNA; Table 3, compounds of FIG. 2): > 10000 nM
5 | CCC(C)NCCC(=O)Nc1sc2c(c1-c1nc3ccccc3s1)CCNC2 (stereo not shown) [Compound 124, N-(3-(benzo[d]thiazol-2-yl)-4,5,6,7-tetrahydrothieno[2,3-c]pyridin-2-yl)-3-(sec-butylamino)propanamide] | – | < 300 | < 300 | –
6 | CC(=O)Nc1sc2c(c1-c1nc3ccccc3s1)C[C@@H](C)N[C@H]2C (relative stereo) [Compound 206, N-(3-(benzo[d]thiazol-2-yl)-cis-5,7-dimethyl-4,5,6,7-tetrahydrothieno[2,3-c]pyridin-2-yl)acetamide] | – | – | – | IC50 ([1]; Table 3, compounds of FIG. 2): 1000 to 10000 nM; IC50 (c-Myc/Max/Ebox DNA; Table 3, compounds of FIG. 2): 1000 to 10000 nM
7 | CC(C)NCCC(=O)Nc1sc2c(c1-c1nc3cc(C(=O)Nc4ccccc4)ccc3s1)CCNC2 [Compound 505, 2-(2-(3-(Isopropylamino)propanamido)-4,5,6,7-tetrahydrothieno[2,3-c]pyridin-3-yl)-N-phenylbenzo[d]thiazole-5-carboxamide] | – | 1000 to 10000 | < 300 | –
8 | COCCNCCC(=O)Nc1sc2c(c1-c1nc3cc(-c4ccncc4)ccc3s1)C[C@H](C)N[C@@H]2C [Compound 532, N-((5S,7R)-5,7-dimethyl-3-(5-(pyridin-4-yl)benzo[d]thiazol-2-yl)-4,5,6,7-tetrahydrothieno[2,3-c]pyridin-2-yl)-3-((2-methoxyethyl)amino)propanamide] | – | > 10000 | 300 to 1000 | –
9 | O=C(CCNCCO)Nc1sc2c(c1-c1nc3ccccc3s1)CCNC2 [Compound 310, N-(3-(Benzo[d]thiazol-2-yl)-4,5,6,7-tetrahydrothieno[2,3-c]pyridin-2-yl)-3-((2-hydroxyethyl)amino)propanamide] | – | < 300 | < 300 | –
10 | COCCNCCC(=O)Nc1sc2c(c1-c1nc3cc(-c4ccncc4)ccc3s1)CC(C)NC2C (single isomer, unassigned) [Compound 522, N-(5,7-dimethyl-3-(5-(pyridin-4-yl)benzo[d]thiazol-2-yl)-4,5,6,7-tetrahydrothieno[2,3-c]pyridin-2-yl)-3-((2-methoxyethyl)amino)propanamide] | < 300 | < 300 | – | –
11 | CCC(C)NCCC(=O)Nc1sc2c(c1-c1nc3cc(C(F)(F)F)ccc3s1)CCN(C(C)C)C2 (stereo not shown) [Compound 146, 3-(sec-butylamino)-N-(6-isopropyl-3-(5-(trifluoromethyl)benzo[d]thiazol-2-yl)-4,5,6,7-tetrahydrothieno[2,3-c]pyridin-2-yl)propanamide] | < 300 | – | – | –
12 | CCC(C)NCCC(=O)Nc1sc2c(c1-c1nc3cc(Br)ccc3s1)CCN(C(C)C)C2 (stereo not shown) [Compound 145, N-(3-(5-Bromobenzo[d]thiazol-2-yl)-6-isopropyl-4,5,6,7-tetrahydrothieno[2,3-c]pyridin-2-yl)-3-(sec-butylamino)propanamide] | 300 to 1000 | – | – | –
13 | CCC(C)NCCC(=O)Nc1sc2c(c1-c1nc3cc(Br)ccc3s1)CCN(C(C)C)C2 (stereo not shown) [Compound 141, N-(3-(5-bromobenzo[d]thiazol-2-yl)-6-isopropyl-4,5,6,7-tetrahydrothieno[2,3-c]pyridin-2-yl)-3-(sec-butylamino)propanamide] | – | – | 300 to 1000 | –
14 | Cn1cc(CNCCC(=O)Nc2sc3c(c2-c2nc4ccccc4s2)CCNC3)cn1 [Compound 143, N-(3-(benzo[d]thiazol-2-yl)-4,5,6,7-tetrahydrothieno[2,3-c]pyridin-2-yl)-3-(((1-methyl-1H-pyrazol-4-yl)methyl)amino)propanamide] | – | – | < 300 | –

The next lines start with results.

Row | IC50 ([1]; Table 2, compounds of FIG. 1) [nM] | IC50 (c-Myc/Max/Ebox DNA; Table 2, compounds of FIG. 1) [nM] | IC50 [1, 2] [nM] | Structure (SMILES) | further results
15 | 300 to 1000 | > 10000 | – | CC[C@H](C)NCCC(=O)Nc1sc2c(c1-c1nc3cc(C(F)(F)F)ccc3s1)CC(C)NC2C (single isomer, unassigned) [Compound 587] | –
16 | – | < 300 | < 300 | CC[C@H](C)NCCC(=O)Nc1sc2c(c1-c1nc3cc(-c4ccncc4)ccc3s1)CCN(C1CC1)C2 [Compound 618, (S)-3-(sec-butylamino)-N-(6-cyclopropyl-3-(5-(pyridin-4-yl)benzo[d]thiazol-2-yl)-4,5,6,7-tetrahydrothieno[2,3-c]pyridin-2-yl)propanamide] | –
17 | – | < 300 | < 300 | COCCNCCC(=O)Nc1sc2c(c1-c1nc3cc(-c4ccnc(N)c4)ccc3s1)CCNC2 [compound 433] | –
18 | – | < 300 | < 300 | CC(C)NCCC(=O)Nc1sc2c(c1-c1nc3cc(-c4ccc(S(C)(=O)=O)cc4)ccc3s1)CCNC2 [compound 181] | –
19 | – | < 300 | < 300 | C=Cc1cccc2sc(-c3c(NC(=O)CCNCCOC)sc4c3CCNC4)nc12 [Compound 583, 3-(2-methoxyethylamino)-N-(3-(4-vinylbenzo[d]thiazol-2-yl)-4,5,6,7-tetrahydrothieno[2,3-c]pyridin-2-yl)propanamide bis(2,2,2-trifluoroacetate)] | –
20 | – | < 300 | < 300 | CC[C@H](C)NCCC(=O)Nc1sc2c(c1-c1nc3cc(-c4ccncc4)ccc3s1)CCN(CC)C2 [Compound 588, (S)-3-(sec-butylamino)-N-(6-ethyl-3-(5-(pyridin-4-yl)benzo[d]thiazol-2-yl)-4,5,6,7-tetrahydrothieno[2,3-c]pyridin-2-yl)propanamide] | –
21 | 1000 to 10000 | 1000 to 10000 | – | CC[C@H](C)NCCC(=O)Nc1sc2c(c1-c1nc3ccccc3s1)CC(C)NC2C (single isomer, unassigned) [Compound 620] | –
22 | – | < 300 | 300 to 1000 | O=C(CCN[C@@H]1C[C@H]2CNC[C@H]2C1)Nc1sc2c(c1-c1nc3cc(-c4ccncc4)ccc3s1)CCNC2 [Compound 606, 3-(((3aR,5s,6aS)-octahydrocyclopenta[c]pyrrol-5-yl)amino)-N-(3-(5-(pyridin-4-yl)benzo[d]thiazol-2-yl)-4,5,6,7-tetrahydrothieno[2,3-c]pyridin-2-yl)propanamide] | –
23 | < 300 | 1000 to 10000 | – | COCCNCCC(=O)Nc1sc2c(c1-c1nc3cc(-c4cnn(C)c4)ccc3s1)CC(C)NC2C (single isomer, unassigned) [Compound 566, N-(5,7-Dimethyl-3-(5-(1-methyl-1H-pyrazol-4-yl)benzo[d]thiazol-2-yl)-4,5,6,7-tetrahydrothieno[2,3-c]pyridin-2-yl)-3-((2-methoxyethyl)amino)propanamide] | –
24 | < 300 | – | – | CCC(C)NCCC(=O)Nc1sc2c(c1-c1nc3ccccc3s1)CCNC2 (stereo not shown) [Compound 607, N-(3-(benzo[d]thiazol-2-yl)-4,5,6,7-tetrahydrothieno[2,3-c]pyridin-2-yl)-3-(sec-butylamino)propanamide] | –
